Measurements reported in US20210079015A1, “NOVEL DIHYDROISOXAZOLE COMPOUNDS AND THEIR USE FOR THE TREATMENT OF HEPATITIS B” (Novartis AG, priority 2017, published 2021).

The compounds below were run on HBV (assay: Anti-HBV assay (inhibition of HBV replication in HepG2.cl42 cells, HBV DNA by qPCR)). Conditions: Hepatitis B virus, 96 h, treated four days, HBV DNA quantified by real time PCR, read-out: HBsAg EC50.
Format: cell-based, HBV ayw strain

First: C[C@H]1Cc2noc(-c3ccc(F)cn3)c2CN1C(=O)Nc1cc(F)c(F)c(F)c1 [Compound 27, (S)-3-(5-fluoropyridin-2-yl)-6-methyl-N-(3,4,5-trifluorophenyl)-6,7-dihydroisoxazolo[4,3-c]pyridine-5(4H)-carboxamide]
Second: C[C@H]1Cc2noc(-c3ccc(F)cc3F)c2CN1C(=O)Nc1cc(F)c(F)c(F)c1 [Compound 3.1-I, (S)-3-(2,4-difluorophenyl)-6-methyl-N-(3,4,5-trifluorophenyl)-6,7-dihydroisoxazolo[4,3-c]pyridine-5(4H)-carboxamide]
The EC50 of the first is higher: 100 to 1000 nM for the first, less than 100 nM for the second. The second is the more potent here.

`C[C@H]1c2c(noc2-c2ccn(C)n2)CCN1C(=O)Nc1cc(F)c(F)c(F)c1` [Compound 34] and `C[C@H]1c2c(noc2-c2cn(C)nn2)CCN1C(=O)Nc1cc(F)c(F)c(F)c1` [Compound 38] cannot be ordered by EC50: no less than 1000 nM for the first, no less than 1000 nM for the second.

Compared with `C[C@H]1Cc2noc(N3CCCOC3=O)c2CN1C(=O)Nc1ccc(F)c(C(F)F)c1` [Compound 50, (S)—N-(3-(difluoromethyl)-4-fluorophenyl)-6-methyl-3-(2-oxo-1,3-oxazinan-3-yl)-6,7-dihydroisoxazolo[4,3-c]pyridine-5(4H)-carboxamide], `C[C@H]1Cc2noc(N3CCOC3=O)c2CN1C(=O)Nc1cc(F)c(F)c(F)c1` [Compound 55, (S)-6-methyl-3-(2-oxooxazolidin-3-yl)-N-(3,4,5-trifluorophenyl)-6,7-dihydroisoxazolo[4,3-c]pyridine-5(4H)-carboxamide] is higher in EC50: less than 100 nM for the first, 100 to 1000 nM for the second.

`Cc1cc(-c2onc3c2[C@H](C)N(C(=O)Nc2cc(F)c(F)c(F)c2)CC3)no1` [Compound 26, (S)-4-methyl-3-(5-methylisoxazol-3-yl)-N-(3,4,5-trifluorophenyl)-6,7-dihydroisoxazolo[4,3-c]pyridine-5(4H)-carboxamide] and `Cc1nc(-c2onc3c2[C@H](C)N(C(=O)Nc2cc(F)c(F)c(F)c2)CC3)co1` [Compound 36] cannot be ordered by EC50: no less than 1000 nM for the first, no less than 1000 nM for the second.

Going from `C[C@H]1Cc2noc(N3C(=O)CCC3=O)c2CN1C(=O)Nc1cc(F)c(F)c(F)c1` [Compound 60, (S)-3-(2,5-dioxopyrrolidin-1-yl)-6-methyl-N-(3,4,5-trifluorophenyl)-6,7-dihydroisoxazolo[4,3-c]pyridine-5(4H)-carboxamide] to `C[C@H]1Cc2noc(N3CCCC3=O)c2CN1C(=O)Nc1cc(F)c(F)c(F)c1` [Compound 8.1, (S)-6-methyl-3-(2-oxopyrrolidin-1-yl)-N-(3,4,5-trifluorophenyl)-6,7-dihydroisoxazolo[4,3-c]pyridine-5(4H)-carboxamide], the EC50 falls from no less than 1000 nM to less than 100 nM.

`COC[C@@H]1CN(c2onc3c2CN(C(=O)Nc2cc(F)c(F)c(F)c2)[C@@H](C)C3)C(=O)O1` [Compound 61, (S)-3-((S)-5-(methoxymethyl)-2-oxooxazolidin-3-yl)-6-methyl-N-(3,4,5-trifluorophenyl)-6,7-dihydroisoxazolo[4,3-c]pyridine-5(4H)-carboxamide] and `COC[C@H]1CN(c2onc3c2CN(C(=O)Nc2cc(F)c(F)c(F)c2)[C@@H](C)C3)C(=O)O1` [Compound 62, (S)-3-((R)-5-(methoxymethyl)-2-oxooxazolidin-3-yl)-6-methyl-N-(3,4,5-trifluorophenyl)-6,7-dihydroisoxazolo[4,3-c]pyridine-5(4H)-carboxamide] fall in the same range of EC50: 100 to 1000 nM for the first, 100 to 1000 nM for the second.

Going from `C[C@H]1Cc2noc(N3CCOCC3)c2CN1C(=O)Nc1cc(F)c(F)c(F)c1` [Compound 59, (S)-6-methyl-3-morpholino-N-(3,4,5-trifluorophenyl)-6,7-dihydroisoxazolo[4,3-c]pyridine-5(4H)-carboxamide] to `C[C@H]1Cc2noc(N3CCOCC3=O)c2CN1C(=O)Nc1cc(F)c(F)c(F)c1` [Compound 49, (S)-6-methyl-3-(3-oxomorpholino)-N-(3,4,5-trifluorophenyl)-6,7-dihydroisoxazolo[4,3-c]pyridine-5(4H)-carboxamide], the EC50 falls from no less than 1000 nM to less than 100 nM. The second is the more potent here.

Compared with `COc1cccc(-c2onc3c2CN(C(=O)Nc2cc(F)c(F)c(F)c2)[C@@H](C)C3)c1` [Compound 20], `COc1ccc(-c2onc3c2CN(C(=O)Nc2cc(F)c(F)c(F)c2)[C@@H](C)C3)cc1` [Compound 9, (S)-3-(4-methoxyphenyl)-6-methyl-N-(3,4,5-trifluorophenyl)-6,7-dihydroisoxazolo[4,3-c]pyridine-5(4H)-carboxamide] is lower in EC50: 100 to 1000 nM for the first, less than 100 nM for the second. The second is the more potent here.

`C[C@H]1Cc2noc(N3CCCCC3=O)c2CN1C(=O)Nc1cc(F)c(F)c(F)c1` [Compound 46, (S)-6-methyl-3-(2-oxopiperidin-1-yl)-N-(3,4,5-trifluorophenyl)-6,7-dihydroisoxazolo[4,3-c]pyridine-5(4H)-carboxamide] and `CC1CCN(c2onc3c2CN(C(=O)Nc2cc(F)c(F)c(F)c2)[C@@H](C)C3)C1=O` (stereo partly drawn) [Compound 56, (6S)-6-methyl-3-(3-methyl-2-oxopyrrolidin-1-yl)-N-(3,4,5-trifluorophenyl)-6,7-dihydroisoxazolo[4,3-c]pyridine-5(4H)-carboxamide] cannot be ordered by EC50: less than 100 nM for the first, less than 100 nM for the second.

`C[C@H]1Cc2noc(N3CCCCC3=O)c2CN1C(=O)Nc1ccc(C#N)c(F)c1` [Compound 47, (S)—N-(4-cyano-3-fluorophenyl)-6-methyl-3-(2-oxopiperidin-1-yl)-6,7-dihydroisoxazolo[4,3-c]pyridine-5(4H)-carboxamide] and `C[C@H]1Cc2noc(N3CCCCC3=O)c2CN1C(=O)Nc1ccccc1` [Compound 54, (S)-6-methyl-3-(2-oxopiperidin-1-yl)-N-phenyl-6,7-dihydroisoxazolo[4,3-c]pyridine-5(4H)-carboxamide] fall in the same range of EC50: 100 to 1000 nM for the first, 100 to 1000 nM for the second.

`Cc1ccc(-c2onc3c2CN(C(=O)Nc2cc(F)c(F)c(F)c2)[C@@H](C)C3)cc1` [Compound 11] and `C[C@H]1Cc2noc(-c3ccc(Cl)cc3)c2CN1C(=O)Nc1cc(F)c(F)c(F)c1` [Compound 18] fall in the same range of EC50: 100 to 1000 nM for the first, 100 to 1000 nM for the second.

`Cc1nc(-c2onc3c2[C@H](C)N(C(=O)Nc2cc(F)c(F)c(F)c2)CC3)no1` [Compound 42] and `Cc1nc(-c2onc3c2[C@H](C)N(C(=O)Nc2cc(F)c(F)c(F)c2)CC3)c(C)o1` [Compound 40] cannot be ordered by EC50: 100 to 1000 nM for the first, no less than 1000 nM for the second.

`Cc1nc(-c2onc3c2CN(C(=O)Nc2cc(F)c(F)c(F)c2)[C@@H](C)C3)cs1` [Compound 29, (S)-6-methyl-3-(2-methylthiazol-4-yl)-N-(3,4,5-trifluorophenyl)-6,7-dihydroisoxazolo[4,3-c]pyridine-5(4H)-carboxamide] and `Cc1nc(-c2onc3c2CN(C(=O)Nc2cc(F)c(F)c(F)c2)[C@@H](C)C3)co1` [Compound 35] fall in the same range of EC50: 100 to 1000 nM for the first, 100 to 1000 nM for the second.

`C[C@H]1c2c(noc2-c2cnn(C)c2)CCN1C(=O)Nc1cc(F)c(F)c(F)c1` [Compound 32] and `C[C@H]1c2c(noc2-c2ccc(F)cn2)CCN1C(=O)Nc1cc(F)c(F)c(F)c1` [Compound 28, (S)-3-(5-fluoropyridin-2-yl)-4-methyl-N-(3,4,5-trifluorophenyl)-6,7-dihydroisoxazolo[4,3-c]pyridine-5(4H)-carboxamide] cannot be ordered by EC50: no less than 1000 nM for the first, 100 to 1000 nM for the second.

`Cc1cc(-c2onc3c2CN(C(=O)Nc2cc(F)c(F)c(F)c2)[C@@H](C)C3)no1` [Compound 25, (S)-6-methyl-3-(5-methylisoxazol-3-yl)-N-(3,4,5-trifluorophenyl)-6,7-dihydroisoxazolo[4,3-c]pyridine-5(4H)-carboxamide] and `Cc1nc(-c2onc3c2CN(C(=O)Nc2cc(F)c(F)c(F)c2)[C@@H](C)C3)no1` [Compound 41] fall in the same range of EC50: 100 to 1000 nM for the first, 100 to 1000 nM for the second.

`C[C@H]1Cc2noc(-c3ccc(OC(F)F)cc3)c2CN1C(=O)Nc1cc(F)c(F)c(F)c1` [Compound 24] and `C[C@H]1Cc2noc(-c3ccc(OC(F)(F)F)cc3)c2CN1C(=O)Nc1cc(F)c(F)c(F)c1` [Compound 16] fall in the same range of EC50: 100 to 1000 nM for the first, 100 to 1000 nM for the second.

First: Cc1nc(-c2onc3c2CN(C(=O)Nc2cc(F)c(F)c(F)c2)[C@@H](C)C3)c(C)o1 [Compound 39]
Second: C[C@H]1Cc2noc(-c3ccn(C)n3)c2CN1C(=O)Nc1cc(F)c(F)c(F)c1 [Compound 33]
The EC50 of the first is higher: 100 to 1000 nM for the first, less than 100 nM for the second.

`C[C@H]1Cc2noc(-c3cn(C)nn3)c2CN1C(=O)Nc1cc(F)c(F)c(F)c1` [Compound 37] and `Cc1ccccc1-c1onc2c1CN(C(=O)Nc1cc(F)c(F)c(F)c1)[C@@H](C)C2` [Compound 17] fall in the same range of EC50: 100 to 1000 nM for the first, 100 to 1000 nM for the second.

`O=C(Nc1cc(F)c(F)c(F)c1)N1CCc2noc(N3CCOC3=O)c2C1` [Compound 5.2, 3-(2-oxooxazolidin-3-yl)-N-(3,4,5-trifluorophenyl)-6,7-dihydroisoxazolo[4,3-c]pyridine-5(4H)-carboxamide] and `O=C(Nc1cc(F)c(F)c(F)c1)N1CCc2noc(N3CCCC3=O)c2C1` [Compound 5.1, 3-(2-oxopyrrolidin-1-yl)-N-(3,4,5-trifluorophenyl)-6,7-dihydroisoxazolo[4,3-c]pyridine-5(4H)-carboxamide] fall in the same range of EC50: 100 to 1000 nM for the first, 100 to 1000 nM for the second.

`C[C@H]1Cc2noc(-c3ccccc3Cl)c2CN1C(=O)Nc1cc(F)c(F)c(F)c1` [Compound 12] and `C[C@@H]1Cc2noc(-c3ccc(F)cc3F)c2CN1C(=O)Nc1cc(F)c(F)c(F)c1` [Compound 3.1-II, (R)-3-(2,4-difluorophenyl)-6-methyl-N-(3,4,5-trifluorophenyl)-6,7-dihydroisoxazolo[4,3-c]pyridine-5(4H)-carboxamide] fall in the same range of EC50: 100 to 1000 nM for the first, 100 to 1000 nM for the second.

First: O=C(Nc1cc(F)c(F)c(F)c1)N1CCc2noc(N3CCCC3)c2C1 [Compound 5.3, 3-(pyrrolidin-1-yl)-N-(3,4,5-trifluorophenyl)-6,7-dihydroisoxazolo[4,3-c]pyridine-5(4H)-carboxamide]
Second: O=C(Nc1cc(F)c(F)c(C(F)F)c1)N1CCc2noc(N3CCCOC3=O)c2C1 [Compound 45, N-(3-(difluoromethyl)-4,5-difluorophenyl)-3-(2-oxo-1,3-oxazinan-3-yl)-6,7-dihydroisoxazolo[4,3-c]pyridine-5(4H)-carboxamide]
The EC50 of the first is higher: no less than 1000 nM for the first, less than 100 nM for the second. The second is the more potent here.

`C[C@H]1Cc2noc(C3CCCC3)c2CN1C(=O)Nc1cc(F)c(F)c(F)c1` [Compound 43] and `C[C@H]1Cc2noc(-c3ccc(C#N)cc3)c2CN1C(=O)Nc1cc(F)c(F)c(F)c1` [Compound 19] fall in the same range of EC50: 100 to 1000 nM for the first, 100 to 1000 nM for the second.
